In US20010001104A1, “Thienopyridine compounds, their production and use” (priority 1998, published 2001):
Read-outs that look alike come from different tables or passages of the source.

How the values were obtained:
[1] = target: T1, GnRH receptors (Rattus norvegicus, UniProt P30969); experiment: 125I-leuprorelin binding inhibition, rat pituitary anterior lobe membrane fraction; conditions: for inhibition at 1 µM: read-out: binding inhibition rate (%) Rat (1 μM); for IC50: Hill plot
T1 construct: Anterior lobes of the pituitary glands were isolated from forty Wistar rats; from tissue; host or cells: anterior lobe of the pituitary gland, male Wistar rats
T1 sequence (P30969 1-327): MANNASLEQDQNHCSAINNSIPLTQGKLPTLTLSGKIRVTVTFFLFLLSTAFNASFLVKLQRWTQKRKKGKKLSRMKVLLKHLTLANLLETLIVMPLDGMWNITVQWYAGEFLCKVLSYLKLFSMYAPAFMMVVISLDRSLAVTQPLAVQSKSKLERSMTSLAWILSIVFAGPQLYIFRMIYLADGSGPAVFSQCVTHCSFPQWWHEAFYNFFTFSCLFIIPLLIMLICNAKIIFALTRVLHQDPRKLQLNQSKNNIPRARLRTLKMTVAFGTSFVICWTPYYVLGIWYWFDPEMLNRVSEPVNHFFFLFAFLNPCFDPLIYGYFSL
Description: After stirring, 10 μl of 0.001% H2O2 was added, and a reaction was carried out at room temperature for 20 minutes. By adding 700 μl of a 0.05% TFA (trifluoroacetic acid) solution, the reaction was stopped, followed by purification by reversed-phase HPLC. […] Anterior lobes of the pituitary glands were isolated from forty Wistar rats (8 weeks old, male), and washed with ice-cooled homogenate buffer [25 mM Tris (tris(hydroxymethyl)aminomethane)-HCl, 0.3M sucrose, 1 mM EGTA (glycol-etherdiamine-N,N,N′,N′-tetraacetic acid), 0.25 mM PMSF (phenylmethylsulfonyl fluoride), 10 U/ml aprotinin, […] pepstatin, […] leupeptin, […], 0.03% sodium azide, pH 7.5]. The pituitary tissue was floated in 2 ml of the homogenate buffer and homogenized using a Polytron homogenizer. The homogenate was centrifuged at 700×g for 15 minutes. The supernatant was taken in an ultracentrifuge tube and centrifuged at 100, 000×g for 1 hour to provide a membrane fraction pellet. This pellet was suspended in 2 ml of assay buffer [25 mM Tris-HCl, 1 mM EDTA (ethylenediaminetetraacetic acid), 0.1% BSA (bovine serum albumin), 0.25 mM PMSF, 1 mg/ml pepstatin, 20 mg/ml leupeptin, […], 0.03% sodium azide, pH 7.5) and the suspension was centrifuged at 100,000×g for 1 hour. The membrane fraction recovered as a pellet was resuspended in 10 ml of assay buffer, divided into portions, preserved at −80° C. and thawed when needed. […] Where the rat or bovine pituitary anterior lobe membrane fraction was used, the reaction was conducted at 4° C. for 90 minutes. Where the membrane fraction of the CHO with human GnRH receptors expressed was used, the reaction was carried out at 25° C. for 60 minutes. After each reaction, the reaction mixture was aspirated and filtered through a polyethyleneimine-treated Whatman glass filter (GF-F). […] The expression (TB-SB)/(TB-NSB)×100 (where SB= radioactivity with the compound added, TB=maximum bound radioactivity, NSB=nonspecifically bound radioactivity) was calculated to find the binding inhibition rate (%) of each test compound.

[2] = target: T2, human GnRH receptor (Homo sapiens, UniProt P30968); experiment: 125I-leuprorelin binding inhibition, CHO cell membrane fraction containing human GnRH receptor
T2 construct: expressed in transfected cells; host or cells: CHO (Chinese hamster ovarian) cells
T2 sequence (P30968 1-328): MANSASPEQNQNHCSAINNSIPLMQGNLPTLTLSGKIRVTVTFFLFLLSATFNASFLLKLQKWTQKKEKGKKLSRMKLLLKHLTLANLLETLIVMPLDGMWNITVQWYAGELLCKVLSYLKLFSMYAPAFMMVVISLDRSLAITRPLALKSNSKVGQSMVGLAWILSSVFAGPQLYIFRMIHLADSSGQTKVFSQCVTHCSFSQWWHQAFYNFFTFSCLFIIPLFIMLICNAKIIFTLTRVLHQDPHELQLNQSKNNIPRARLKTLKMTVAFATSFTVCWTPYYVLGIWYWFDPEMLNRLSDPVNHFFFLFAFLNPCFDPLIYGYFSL
Description: After stirring, 10 μl of 0.001% H2O2 was added, and a reaction was carried out at room temperature for 20 minutes. By adding 700 μl of a 0.05% TFA (trifluoroacetic acid) solution, the reaction was stopped, followed by purification by reversed-phase HPLC. […] To the cell pellet, 10 ml of a cell homogenate buffer (10 mM NaHCO3, 5 mM EDTA, pH 7.5) was added, followed by homogenization using the Polytron homogenizer. After centrifugation at 400×g for 15 minutes, the supernatant was transferred to an ultracentrifugation tube and centrifuged at 100,000×g for 1 hour to yield a membrane fraction precipitate. This precipitate was suspended in 2 ml of an assay buffer and centrifuged at 100,000×g for 1 hour. The membrane fraction recovered as a precipitate was again suspended in 20 ml of the assay buffer, dispensed, and stored at −80° C. before use upon thawing. […] Where the rat or bovine pituitary anterior lobe membrane fraction was used, the reaction was conducted at 4° C. for 90 minutes. Where the membrane fraction of the CHO with human GnRH receptors expressed was used, the reaction was carried out at 25° C. for 60 minutes. After each reaction, the reaction mixture was aspirated and filtered through a polyethyleneimine-treated Whatman glass filter (GF-F). […] The expression (TB-SB)/(TB-NSB)×100 (where SB= radioactivity with the compound added, TB=maximum bound radioactivity, NSB=nonspecifically bound radioactivity) was calculated to find the binding inhibition rate (%) of each test compound.

[3] = tested on: blood LH; experiment: Suppression of blood LH in castrated monkeys; assay type: in vivo, cynomolgus monkeys (Macaca fascicularis); conditions: castrated male cynomolgus monkeys; 30 mg/kg oral; values only in FIG. 1
Description: The compound produced in Example 1-2 was orally administered to castrated male cynomolgus monkeys (Macaca fascicularis), and blood LH was quantified. The male cynomolgus monkeys, used at 3 years 8 months to 7 years 7 months of age at time of experimentation, had been castrated more than half a year prior to the examination. Test animals [n =2; compound (1) and compound (2)] were given 30 mg/kg (3 ml/kg) of the compound suspended in 0.5% methyl cellulose at a final concentration of 1% by oral administration, and control animals [n=3; control (1), control (2) and control (3)] were given 3 ml/kg of the 0.5% methyl cellulose dispersant alone by oral administration. […]
Plasma LH concentrations were determined by a bioassay using mouse testicular cells. […] The testosterone concentration in the culture supernatant was determined by a radioimmunoassay (CIS Diagnostics Company), and the LH concentration in the test monkey plasma was calculated from the standard curve for the standard equine LH.
For the control (1), the control (2), and the control (3), changes over time in the LH concentrations in each animal are expressed as percent ratios to the respective reference values, which comprise the LH concentrations immediately before administration in each control animal (cynomolgus monkey). […]

[4] = rat pituitary anterior lobe membrane fraction, 125I-leuprorelin

SMILES: CC(C)C(=O)c1cn(Cc2c(F)cccc2F)c2sc(-c3ccc(NC(=O)[C@H](C)CO)cc3)c(CN(C)Cc3ccccc3)c2c1=O.Cl
- melting point: 214 to 216 °C

SMILES: CC(C)C(=O)c1cn(Cc2c(F)cccc2F)c2sc(-c3ccc(NC(=O)C(C)(C)O)cc3)c(CN(C)Cc3ccccc3)c2c1=O.Cl
- melting point: 213 to 215 °C

SMILES: CC(C)C(=O)c1cn(Cc2c(F)cccc2F)c2sc(-c3ccc(NC(=O)C4(O)CC4)cc3)c(CN(C)Cc3ccccc3)c2c1=O.Cl
- melting point: 220 to 222 °C

SMILES: CC(C)C(=O)c1cn(Cc2c(F)cccc2F)c2sc(-c3ccc(NC(=O)CC(C)(C)O)cc3)c(CN(C)Cc3ccccc3)c2c1=O.Cl
- melting point: 216 to 218 °C

SMILES: CONC(=O)Nc1ccc(-c2sc3c(c2CN(C)Cc2ccccc2)c(=O)c(C(=O)C(C)C)cn3Cc2c(F)cccc2F)cc1.Cl
- melting point: 225 to 230 °C

SMILES: CC(C)C(=O)c1cn(Cc2c(F)cccc2F)c2sc(-c3ccc(NC(=O)CO)cc3)c(CN(C)Cc3ccccc3)c2c1=O.Cl
- melting point: 197 to 199 °C

SMILES: CC(C)C(=O)c1cn(Cc2c(F)cccc2F)c2sc(-c3ccc(NC(=O)C4CC4)cc3)c(CN(C)Cc3ccccc3)c2c1=O.Cl [Example 1-2, 3-(N-benzyl-N-methylaminomethyl)-4,7-dihydro-5-isobutyryl-7-(2,6-difluorobenzyl)-2-(4-cyclopropanecarbonylaminophenyl)-4-oxothieno[2,3-b]pyridine Hydrochloride]
- inhibition at 1 µM ([1]; 1 μM compound, rat pituitary anterior lobe membrane fraction, 125I-leuprorelin, 4° C., 90 minutes): 96%
- IC50 [1, 4]: 0.06 µM
- inhibition at 20 µM ([2]; 20 μM compound, CHO membrane fraction with human GnRH receptors, 125I-leuprorelin, 25° C., 60 minutes, read-out: binding inhibition rate (%) Human (20 μM)): 102%
- IC50 ([2]; CHO membrane fraction with human GnRH receptors, 125I-leuprorelin, Hill plot, read-out: IC50 value (μM) Human): 0.0001 µM
- plasma LH concentrations [3]: suppression of plasma LH concentrations
- melting point: 254 to 256 °C

SMILES: CC(C)C(=O)c1cn(Cc2c(F)cccc2F)c2sc(-c3ccc(NC(=O)C(C)CO)cc3)c(CN(C)Cc3ccccc3)c2c1=O (stereo not shown) [Example 3, 3-(N-benzyl-N-methylaminomethyl)-4,7-dihydro-5-isobutyryl-7-(2,6-difluorobenzyl)-2-[4-(3-hydroxy-2-methylpropionylamino)phenyl]-4-oxothieno[2,3-b]pyridine]
- IC50 [1, 4]: 0.6 µM
- inhibition at 1 µM [1]: 62%
- IC50 [2]: 0.0002 µM
- melting point: 161 to 162 °C

SMILES: CC(C)C(=O)Nc1ccc(-c2sc3c(c2CN(C)Cc2ccccc2)c(=O)c(C(=O)C(C)(C)O)cn3Cc2c(F)cccc2F)cc1 [Example 7, 3-(N-benzyl-N-methylaminomethyl)-4,7-dihydro-7-(2,6-difluorobenzyl)-2-(4-isobutyrylaminophenyl)-5-(2-hydroxy-2-methylpropionyl)-4-oxothieno[2,3-b]pyridine]
- melting point: 170 to 172 °C

SMILES: CC(C)C(=O)c1cn(Cc2c(F)cccc2F)c2sc(-c3ccc(NC(=O)[C@H](C)CO)cc3)c(CN(C)Cc3ccccc3)c2c1=O [Example 10-1, (R)-4,7-dihydro-2-[4-(3-hydroxy-2-methylpropionylamino)phenyl]-7-(2,6-difluorobenzyl)-3-(N-benzyl-N-methylaminomethyl)-5-isobutyryl-4-oxothieno[2,3-b]pyridine]
- melting point: 161 to 162 °C

SMILES: CC(C)C(=O)c1cn(Cc2c(F)cccc2F)c2sc(-c3ccc(NC(=O)C(C)(C)O)cc3)c(CN(C)Cc3ccccc3)c2c1=O [Example 11-1, 4,7-dihydro-2-[4-(2-hydroxy-2-methylpropionylamino)phenyl]-7-(2,6-difluorobenzyl)-3-(N-benzyl-N-methylaminomethyl)-5-isobutyryl-4-oxothieno[2,3-b]pyridine]
- melting point: 178 to 180 °C

SMILES: CN(Cc1ccccc1)Cc1c(-c2ccc(NC(=O)C3(O)CC3)cc2)sc2c1c(=O)c(C(=O)c1ccccc1)cn2Cc1c(F)cccc1F [Example 21]
- melting point: 186 to 188 °C

SMILES: CN(Cc1ccccc1)Cc1c(-c2ccc(NC(=O)C(C)(C)O)cc2)sc2c1c(=O)c(C(=O)c1ccccc1)cn2Cc1c(F)cccc1F [Example 22, 3-(N-benzyl-N-methylaminomethyl)-5-benzoyl-7-(2,6-difluorobenzyl)-4,7-dihydro-2-[4-(2-hydroxy-2-methylpropionylamino)phenyl]-4-oxothieno[2,3-b]pyridine]
- melting point: 222 to 223 °C

SMILES: C[C@H](CO)C(=O)Nc1ccc(-c2sc3c(c2CN(C)Cc2ccccc2)c(=O)c(C(=O)c2ccccc2)cn3Cc2c(F)cccc2F)cc1 [Example 23]
- melting point: 145 to 146 °C
